Measured values: patent US9963708B2, “Recombinant vector for foreign gene expression without biological circuit interference of host cell and uses thereof” (INDUSTRY FOUNDATION OF CHONNAM NATIONAL UNIVERSITY, priority 2014, dated 2018)

Test system: cGMP receptor protein
Assay: Inducible GFP expression with cGMP added directly as inducing agent, without guanylyl cyclase
Assay type: cell-based, Rhodospirillum centenum
Conditions: cGMP 500 μM in 0.1% DMSO, 6 hours; pTrc99a-P-CRP + pPRO (0896-GFPuv)3
From the text: According to an inducible expression system, the target gene product is generally expressed in a large amount when there are internal/external inducing agents (chemicals, heat, oxygen, osmotic pressure, or the like) as a signal, and it is widely used in various fields. The most commonly used inducible system is a system in which IPTG is used as an inducing agent. However, being a chemically synthesized inducing agent, it is toxic to cells and, by producing an excess amount of proteins within a short time, a metabolic burden is stressful to the host, and thus it may work as a growth-inhibiting factor. […] To do so, guanylyl cyclase which converts GTP to cGMP molecule was removed, and cGMP was added as an inducing agent to a medium and the level of gene expression was determined. […]
pTrc99a-Cyc-P-CRP plasmid was treated with restriction enzymes BamHI and HindIII to remove the polynucleotide encoding the guanylyl cyclase and according to treatment with a Klenow fragment, self-ligation was induced to complete pTrc99a-P-CRP construct. […] After inoculation to have 1% concentration of the original culture (15 ml), when the absorbance (OD600) of the culture reaches 0.5, cGMP dissolved in 0.1% DMSO was added to 500 μM and expression of the green fluorescent protein was induced for 6 hours. […]

Nc1nc2c(ncn2[C@@H]2O[C@@H]3COP(=O)(O)O[C@H]3[C@H]2O)c(=O)[nH]1 [cGMP, cyclic guanosine monophosphate]
expression of the green fluorescent protein induced by cGMP: there was indeed expression of the green fluorescent protein
